What was measured:
[1] = molecular target: T1, CYP3A4 (Homo sapiens, UniProt P08684); test: Ratio of Kinact to Ki for CYP3A4 (unknown origin); format: ADME
[2] = molecular target: T2, CYP3A5 (Homo sapiens, UniProt P20815); test: Inhibition of human His-tagged CYP3A5 expressed in Escherichia coli TOPP3 using BFC as substrate assessed as residual activity by fluorescence assay in presence of cytochrome b5; format: ADME; conditions: probe BFC
[3] = molecular target: T3, Cytochrome P450 3A4 (Homo sapiens, UniProt P08684); test: Inhibition of His-tagged CYP3A4 (unknown origin) expressed in Escherichia coli TOPP3 using BFC as substrate after 15 mins by fluorescence assay in presence of NADPH; format: ADME; conditions: 0.25 h
[4] = molecular target: T3, Cytochrome P450 3A4; test: Inhibition of His-tagged CYP3A4 (unknown origin) expressed in Escherichia coli TOPP3 using BFC as substrate after 15 mins by fluorescence assay in presence of NADPH and cytochrome b5; format: ADME; conditions: 0.25 h
[5] = Cmax in human; format: ADME, organism-based; conditions: in vivo
[6] = molecular target: T4, Cytochrome P450 2B6 (Homo sapiens, UniProt P20813); test: Inhibition of human His-tagged CYP2B6 expressed in Escherichia coli TOPP3 using 7-ethoxy-4-(trifluoromethyl)coumarin as substrate after 15 mins by fluorescence assay in presence of NADPH; format: ADME; conditions: 0.25 h
T4 sequence (P20813 whole entry): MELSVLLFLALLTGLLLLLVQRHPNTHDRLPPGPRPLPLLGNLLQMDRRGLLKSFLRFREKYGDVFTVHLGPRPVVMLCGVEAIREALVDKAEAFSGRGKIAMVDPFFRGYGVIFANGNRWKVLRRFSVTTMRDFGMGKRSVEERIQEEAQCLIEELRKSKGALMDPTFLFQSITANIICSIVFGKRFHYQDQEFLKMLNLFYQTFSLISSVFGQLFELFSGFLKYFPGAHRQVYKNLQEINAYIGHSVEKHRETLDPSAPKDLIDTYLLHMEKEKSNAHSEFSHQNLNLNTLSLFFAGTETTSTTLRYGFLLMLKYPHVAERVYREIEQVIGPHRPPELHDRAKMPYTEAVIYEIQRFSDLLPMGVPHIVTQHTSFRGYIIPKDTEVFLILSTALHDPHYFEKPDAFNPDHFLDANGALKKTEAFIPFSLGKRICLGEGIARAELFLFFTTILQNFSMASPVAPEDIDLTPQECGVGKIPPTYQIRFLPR

[7] = molecular target: T4, Cytochrome P450 2B6; test: Inhibition of human His-tagged CYP2B6 expressed in Escherichia coli TOPP3 using 7-ethoxy-4-(trifluoromethyl)coumarin as substrate after 15 mins by fluorescence assay in presence of NADPH and cytochrome b5; format: ADME; conditions: 0.25 h
[8] = molecular target: T5, Cytochrome P450 2D6 (Homo sapiens, UniProt P10635); test: Inhibition of human His-tagged CYP2D6 expressed in Escherichia coli TOPP3 using 7-ethoxy-4-(trifluoromethyl)coumarin as substrate after 15 mins by fluorescence assay in presence of NADPH; format: ADME; conditions: 0.25 h
[9] = molecular target: T5, Cytochrome P450 2D6; test: Inhibition of human His-tagged CYP2D6 expressed in Escherichia coli TOPP3 using 7-ethoxy-4-(trifluoromethyl)coumarin as substrate after 15 mins by fluorescence assay in presence of NADPH and cytochrome b5; format: ADME; conditions: 0.25 h
[10] = molecular target: T6, Cytochrome P450 3A5 (Homo sapiens, UniProt P20815); test: Inhibition of human His-tagged CYP3A5 expressed in Escherichia coli TOPP3 using BFC as substrate after 15 mins by fluorescence assay in presence of NADPH; format: ADME; conditions: 0.25 h
[11] = molecular target: T6, Cytochrome P450 3A5; test: Inhibition of human His-tagged CYP3A5 expressed in Escherichia coli TOPP3 using BFC as substrate after 15 mins by fluorescence assay in presence of NADPH and cytochrome b5; format: ADME; conditions: 0.25 h
[12] = molecular target: T3, Cytochrome P450 3A4; test: Inhibition of human His-tagged CYP3A4 expressed in Escherichia coli TOPP3 using BFC as substrate after 15 mins by fluorescence assay in presence of NADPH and cytochrome b5; format: ADME; conditions: 0.25 h
[13] = molecular target: T3, Cytochrome P450 3A4; test: Inhibition of human His-tagged CYP3A4 expressed in Escherichia coli TOPP3 using BFC as substrate at 10 to 100 uM by fluorescence assay in presence of NADPH and cytochrome b5; format: ADME; conditions: TDE = time-dependent effect
[14] = molecular target: T1, CYP3A4; test: Inhibition of human His-tagged CYP3A4 expressed in Escherichia coli TOPP3 using BFC as substrate at 100 uM after 30 mins in presence of NADPH and cytochrome b5; format: ADME; conditions: probe BFC
[15] = molecular target: T1, CYP3A4; test: Inhibition of human His-tagged CYP3A4 expressed in Escherichia coli TOPP3 using BFC as substrate at 100 uM after 30 mins by spectrophotometry in presence of NADPH and cytochrome b5 relative to control; format: ADME; conditions: probe BFC
[16] = molecular target: T3, Cytochrome P450 3A4; test: Inhibition of human His-tagged CYP3A4 expressed in Escherichia coli TOPP3 using BFC as substrate assessed as unmodified heme at 100 uM after 30 mins by HPLC analysis in presence of NADPH and cytochrome b5; format: ADME; conditions: 0.5 h
[17] = molecular target: T1, CYP3A4; test: Inhibition of human His-tagged CYP3A4 expressed in Escherichia coli TOPP3 using BFC as substrate assessed as residual activity by fluorescence assay in presence of cytochrome b5; format: ADME; conditions: probe BFC
[18] = molecular target: T1, CYP3A4; test: Inhibition of human His-tagged CYP3A4 expressed in Escherichia coli TOPP3 using BFC as substrate assessed as residual activity after 10 mins by fluorescence assay in presence of NADPH and cytochrome b5 relative to control; format: ADME; conditions: probe BFC, read-out: Activity
[19] = molecular target: T1, CYP3A4; test: Inhibition of human His-tagged CYP3A4 expressed in Escherichia coli TOPP3 using BFC as substrate assessed as residual activity after 20 mins by fluorescence assay in presence of NADPH and cytochrome b5 relative to control; format: ADME; conditions: probe BFC, read-out: Activity
[20] = molecular target: T1, CYP3A4; test: Inhibition of human His-tagged CYP3A4 expressed in Escherichia coli TOPP3 using BFC as substrate assessed as residual activity after 30 mins by fluorescence assay in presence of NADPH and cytochrome b5 relative to control; format: ADME; conditions: probe BFC, read-out: Activity
[21] = molecular target: T2, CYP3A5; test: Inhibition of human His-tagged CYP3A5 expressed in Escherichia coli TOPP3 using BFC as substrate assessed as residual activity after 10 mins by fluorescence assay in presence of NADPH and cytochrome b5 relative to control; format: ADME; conditions: probe BFC, read-out: Activity
[22] = molecular target: T2, CYP3A5; test: Inhibition of human His-tagged CYP3A5 expressed in Escherichia coli TOPP3 using BFC as substrate assessed as residual activity after 20 mins by fluorescence assay in presence of NADPH and cytochrome b5 relative to control; format: ADME; conditions: probe BFC, read-out: Activity
[23] = molecular target: T2, CYP3A5; test: Inhibition of human His-tagged CYP3A5 expressed in Escherichia coli TOPP3 using BFC as substrate assessed as residual activity after 30 mins by fluorescence assay in presence of NADPH and cytochrome b5 relative to control; format: ADME; conditions: probe BFC, read-out: Activity
[24] = molecular target: T3, Cytochrome P450 3A4; test: Inhibition of human His-tagged CYP3A4 expressed in Escherichia coli TOPP3 using BFC as substrate at 100 uM after 30 mins by spectrophotometry in presence of cytochrome b5; format: ADME; conditions: 0.5 h

T2 sequence (P20815 whole entry): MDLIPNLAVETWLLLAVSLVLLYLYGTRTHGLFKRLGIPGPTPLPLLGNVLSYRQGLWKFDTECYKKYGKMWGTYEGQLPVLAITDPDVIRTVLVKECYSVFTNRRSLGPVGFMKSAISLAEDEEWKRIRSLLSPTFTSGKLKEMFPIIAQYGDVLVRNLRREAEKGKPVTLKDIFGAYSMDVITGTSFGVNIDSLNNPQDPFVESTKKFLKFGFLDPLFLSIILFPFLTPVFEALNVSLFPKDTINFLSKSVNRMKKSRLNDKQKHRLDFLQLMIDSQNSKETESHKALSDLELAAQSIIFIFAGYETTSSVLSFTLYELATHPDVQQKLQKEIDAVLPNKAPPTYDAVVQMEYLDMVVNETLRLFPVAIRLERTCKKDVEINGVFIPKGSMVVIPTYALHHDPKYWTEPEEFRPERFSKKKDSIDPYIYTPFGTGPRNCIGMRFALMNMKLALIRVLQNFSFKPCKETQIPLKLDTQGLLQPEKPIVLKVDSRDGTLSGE
T3 sequence (P08684 whole entry): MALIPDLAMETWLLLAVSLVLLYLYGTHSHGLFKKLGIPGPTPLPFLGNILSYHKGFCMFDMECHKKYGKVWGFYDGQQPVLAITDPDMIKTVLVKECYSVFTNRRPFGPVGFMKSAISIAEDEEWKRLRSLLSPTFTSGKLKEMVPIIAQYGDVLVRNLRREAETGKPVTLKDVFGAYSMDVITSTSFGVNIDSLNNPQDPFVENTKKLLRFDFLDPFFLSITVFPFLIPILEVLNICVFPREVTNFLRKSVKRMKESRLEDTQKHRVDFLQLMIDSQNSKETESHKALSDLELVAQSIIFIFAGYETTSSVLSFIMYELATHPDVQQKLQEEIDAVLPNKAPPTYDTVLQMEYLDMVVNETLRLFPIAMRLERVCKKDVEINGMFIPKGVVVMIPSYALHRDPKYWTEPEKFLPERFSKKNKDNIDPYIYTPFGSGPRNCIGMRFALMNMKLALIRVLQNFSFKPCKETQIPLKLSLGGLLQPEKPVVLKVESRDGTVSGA
T1 sequence (P08684 whole entry): as above
T5 sequence (P10635 whole entry): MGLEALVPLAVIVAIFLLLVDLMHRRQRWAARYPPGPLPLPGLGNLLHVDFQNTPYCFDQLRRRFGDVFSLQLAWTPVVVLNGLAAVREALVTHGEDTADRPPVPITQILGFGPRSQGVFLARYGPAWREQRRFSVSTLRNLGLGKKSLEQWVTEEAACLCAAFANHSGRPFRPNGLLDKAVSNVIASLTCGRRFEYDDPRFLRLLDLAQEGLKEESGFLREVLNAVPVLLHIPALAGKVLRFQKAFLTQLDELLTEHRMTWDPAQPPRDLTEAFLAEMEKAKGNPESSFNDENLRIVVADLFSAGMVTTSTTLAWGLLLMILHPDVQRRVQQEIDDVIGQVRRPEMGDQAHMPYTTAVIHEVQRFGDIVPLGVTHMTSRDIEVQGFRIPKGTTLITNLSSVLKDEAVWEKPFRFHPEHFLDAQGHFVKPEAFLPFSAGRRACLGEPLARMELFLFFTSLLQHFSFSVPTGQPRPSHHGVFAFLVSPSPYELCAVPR
T6 sequence (P20815 whole entry): as the sequence (P20815 whole entry) above

C#C[C@]1(O)CC[C@H]2[C@@H]3CCc4cc(O)ccc4[C@H]3CC[C@@]21C [ETHINYL ESTRADIOL]
kinact/KI [1]: 667 M⁻¹ s⁻¹

CC(C)=CCC/C(C)=C/COc1c2ccoc2cc2oc(=O)ccc12 [BERGAMOTTIN]
kinact/KI [1]: 667 M⁻¹ s⁻¹

CC#C[C@]1(O)CC[C@H]2[C@@H]3CCC4=CC(=O)CCC4=C3[C@@H](c3ccc(N(C)C)cc3)C[C@@]21C [MIFEPRISTONE]
kinact/KI [1]: 333 M⁻¹ s⁻¹

O=C(Nc1ccc(OC(F)(F)F)cc1)c1sccc1NCc1ccnc2ccccc12 [OSI-930]
activity [2]: 100% | inhibition (INH) [3]: Active | inhibition (INH) [4]: Active | Cmax [5]: 1700 nM | inhibition (INH) [6]: Not Active | inhibition (INH) [7]: Not Active | inhibition (INH) [8]: Not Active | inhibition (INH) [9]: Not Active | inhibition (INH) [10]: Not Active | inhibition (INH) [11]: Not Active | inhibition (INH) [12]: Dose-dependent effect | inhibition (INH) [13]: tde | inhibition at 0.5 h, 100 µM [14]: 75% | inhibition at 0.5 h, 100 µM [15]: 70% | inhibition (INH) [16]: Active | activity [17]: 100% | activity at 10 min [18]: 71% | activity at 20 min [19]: 50% | activity at 0.5 h [20]: 39% | activity at 10 min [21]: 113% | activity at 20 min [22]: 109% | activity at 0.5 h [23]: 98% | inhibition (INH) [24]: Not Active

CC/C(=C(\c1ccccc1)c1ccc(OCCN(C)C)cc1)c1ccccc1 [TAMOXIFEN]
kinact/KI [1]: 333 M⁻¹ s⁻¹
